Assay results: patent US6500816B1, “Remedies for photochemotherapy” (Nippon Kayaku Kabushiki Kaisha, priority 1998, dated 2002)

Key:
[1] = Maximum absorption wavelength of the compounds; format: physicochemical
Excerpt: Some representative examples of the compounds utilizable as the photochemotherapeutic agent according to the present invention are shown below.

[2] = background art statement; cited from earlier work

Compound	Maximum absorption wavelength (λmax) [1]	maximum absorption wavelength [2]
CCN(CC)c1ccc(C(=CC=CC(=C2C=CC(=[N+](CC)CC)C=C2)c2ccc(N(CC)CC)cc2)c2ccc(N(CC)CC)cc2)cc1 [Polymethine type 1]	820 nm	–
dihematoporphyrin [Photofrin]	–	363 nm
CC1CC(C=CC=C/C=C2\CC(C)Cc3c(-c4ccccc4)cc(-c4ccccc4)[o+]c32)=C2OC(c3ccccc3)=CC(c3ccccc3)=C2C1 (stereo not drawn) [Polymethine type 4]	1045 nm	–
